Assay results: patent US20200009088A1, “COMPOSITIONS AND METHODS FOR TREATING ANDROGEN-INDEPENDENT CANCER” (The Regents of the University of California, priority 2017, published 2020)
“Also recorded” adds a separate entry of the source.

Key:
C4-2B MDVR cells = experiment: Cell growth assay (cell numbers), C4-2B MDVR; format: cell-based; details: for cell growth: increasing doses of niclosamide/analogs, FIG. 6; for synergy with abiraterone in inhibiting cell growth / synergy with enzalutamide in inhibiting cell growth: C4-2BMDVR, FIG. 10; for synergy with abiraterone in inhibiting cell growth: analog 0.25 μM + abiraterone 5 μM; for synergy with enzalutamide in inhibiting cell growth: analog 0.25 μM + enzalutamide 20 μM
CWR22Rv1 cells [1] = experiment: Cell growth assay (cell numbers), CWR22Rv1; format: cell-based; details: for cell growth: CWR22Rv1, 48 hours, increasing doses of niclosamide/analogs, FIG. 6
AR = experiment: Western blot of AR expression in CWR22Rv1 cell lysates; format: cell-based; details: CWR22Rv1 cells, FIG. 2A
Experimental: (§1) “AR-Variants” represents a combination of all forms of AR.
(§2) The effects of the synthetic small molecule modulators on AR and AR variant expression were determined. CWR22Ry1 prostate cancer cells were treated with different compounds. Protein lysates were analyzed for AR and AR variant expression.

CWR22Rv1 cells [2] = experiment: Cell growth assay (cell numbers), CWR22Rv1; format: cell-based; details: for cell growth, combination with bicalutamide: CWR22Rv1, analog 0.25 μM + bicalutamide 20 μM, 0, 3, 5 days; for cell growth, combination with enzalutamide: CWR22Rv1, analog 0.25 μM + enzalutamide 20 μM, 0, 3, 5 days; for cell growth, combination with enzalutamide / cell growth, combination with abiraterone: FIGS. 9, 11; for cell growth, niclosamide analog alone: CWR22Rv1, analog 0.25 μM, 0, 3, 5 days, FIGS. 9, 11, 12; for synergy with abiraterone in inhibiting cell growth: CWR22Rv1, analog 0.25 μM + abiraterone 5 μM; for cell growth, combination with abiraterone: CWR22Rv1, analog 0.25 μM + abiraterone 5 μM, 0, 3, 5 days; for synergy with enzalutamide in inhibiting cell growth: CWR22Rv1, analog 0.25 μM + enzalutamide 20 μM
Experimental: DMSO treatment was used as a negative control. Total cell numbers were counted at 0, 3, and 5 days.
DMSO treatment was used as a negative control. Total cell numbers were counted at 0, 3, and 5 days. […]
The cell growth was determined at 3,5 days. […] The cell growth was determined at 3,5 days.

AR-V7 [3] = target: T1, AR-V7 (Homo sapiens, UniProt P10275); experiment: Western blot of AR-V7 expression in CWR22Rv1 cell lysates; format: cell-based; parameters: endogenous in cells; host or cells: CWR22Rv1 prostate cancer cells (also grown as xenograft tumours); details: CWR22Rv1 cells, FIG. 2A
T1 sequence (P10275 1-644 isoform P10275-3): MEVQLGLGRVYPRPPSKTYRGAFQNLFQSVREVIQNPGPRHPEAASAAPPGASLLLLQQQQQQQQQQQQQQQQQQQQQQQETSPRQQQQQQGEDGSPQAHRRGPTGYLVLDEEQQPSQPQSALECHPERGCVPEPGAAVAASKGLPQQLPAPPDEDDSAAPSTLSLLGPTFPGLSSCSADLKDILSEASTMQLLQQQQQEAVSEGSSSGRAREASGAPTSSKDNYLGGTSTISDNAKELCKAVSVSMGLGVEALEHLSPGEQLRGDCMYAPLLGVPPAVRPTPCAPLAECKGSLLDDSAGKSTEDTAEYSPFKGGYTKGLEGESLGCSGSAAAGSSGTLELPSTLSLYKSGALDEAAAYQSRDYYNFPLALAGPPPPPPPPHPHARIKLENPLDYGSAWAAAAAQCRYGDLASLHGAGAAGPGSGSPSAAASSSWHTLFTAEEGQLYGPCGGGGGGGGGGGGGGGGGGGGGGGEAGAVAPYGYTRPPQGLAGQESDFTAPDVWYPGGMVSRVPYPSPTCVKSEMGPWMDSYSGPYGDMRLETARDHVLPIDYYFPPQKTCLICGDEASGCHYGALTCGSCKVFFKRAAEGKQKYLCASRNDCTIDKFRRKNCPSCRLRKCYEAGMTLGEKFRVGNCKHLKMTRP
Experimental: as §1, §2

PSA = PSA protein expression by ELISA in C4-2 cells overexpressing AR-V7; format: cell-based; details: C4-2-V7 cells, FIG. 3
Experimental: PSA protein expression was determined by ELISA assay. * denotes p<0.05.

C4-2B AbiR cells = experiment: Cell growth assay (cell numbers), C4-2B AbiR; format: cell-based; details: 0.5 μM + enzalutamide, 48 hours, FIG. 7C
C4-2-V7 cells = experiment: Cell growth assay (cell numbers), C4-2-V7; format: cell-based; details: C4-2-V7, 0.5 μM + enzalutamide, 48 hours, FIG. 7D
AR-V7 [4] = target: T1, AR-V7; experiment: PSA-luc reporter in LNCaP cells co-transfected with AR-V7; details: LNCaP cells co-transfected with AR-V7, FIG. 4
Experimental: The luciferase activity was then determined. * denotes p<0.05.
In addition, the effects on AR transcriptional activity were determined using PSA-luc as a reporter. LNCaP cells were cotransfected with PSA-luc together with or without AR-V7, and treated with the compounds.

C4-2BMDVR cells = experiment: ELISA cell death (apoptosis) assay; format: cell-based; details: FIG. 8
Experimental: To further examine the anti-cancer effects of these compounds, an ELISA cell death assay was performed.

Row | Structure (SMILES) | AR expression (AR) | cell growth, combination with enzalutamide (CWR22Rv1 cells [2]) | cell growth, niclosamide analog alone (CWR22Rv1 cells [2]) | AR-V7 (AR variant) expression (AR-V7 [3]) | synergy with abiraterone in inhibiting cell growth (CWR22Rv1 cells [2]) | cell growth, combination with abiraterone (CWR22Rv1 cells [2]) | other results
1 | CNC(=O)c1ccc(N2C(=S)N(c3cnc(C#N)c(C(F)(F)F)c3)C(=O)C23CCC3)cc1F [ARN509, reference compound] |  |  |  |  |  |  | cell growth (C4-2B MDVR cells; C4-2B MDVR, 48 hours): did not inhibit; cell growth (CWR22Rv1 cells [1]): did not inhibit
2 | COC(=O)COc1ccc(Cl)cc1C(=O)Nc1ccc([N+](=O)[O-])cc1Cl [Compound 34] | no effect | nor the was the combination of these compounds with enzalutamide or abiraterone able to inhibit | Neither of Compounds 1 or 34 alone were able to inhibit; also recorded: None of Compounds 1, 7, 30, 31, or 34 alone were able to inhibit | no effect |  |  | synergy with abiraterone in inhibiting cell growth (C4-2B MDVR cells): neither Compound 1 nor Compound 34 were able to synergize; synergy with enzalutamide in inhibiting cell growth (C4-2B MDVR cells): neither Compound 1 nor Compound 34 were able to synergize; cell growth, combination with bicalutamide (CWR22Rv1 cells [2]; FIG. 12): not able to inhibit
3 | O=C(Nc1ccc([N+](=O)[O-])cc1Cl)c1ccccc1O [Compound 2] | no effect | nor was a combination of either of these compounds with enzalutamide or abiraterone able to inhibit | neither Compounds 2 nor Compound 17 alone were able to inhibit | no effect | but not Compounds 2 and 17, were able to synergize | nor was a combination of either of these compounds with enzalutamide or abiraterone able to inhibit | 
4 | C[C@]12CC[C@H](O)CC1=CC[C@@H]1[C@@H]2CC[C@]2(C)C(c3cccnc3)=CC[C@@H]12 [abiraterone, reference compound] |  |  |  |  |  |  | cell growth (C4-2B MDVR cells; C4-2B MDVR, 48 hours): did not inhibit; cell growth (CWR22Rv1 cells [1]): did not inhibit
5 | O=C(Nc1cc(F)cc(F)c1)c1cc(Cl)ccc1O [Compound 17] | no effect | nor was a combination of either of these compounds with enzalutamide or abiraterone able to inhibit | neither Compounds 2 nor Compound 17 alone were able to inhibit | no effect | but not Compounds 2 and 17, were able to synergize | nor was a combination of either of these compounds with enzalutamide or abiraterone able to inhibit | 
6 | O=C(Nc1cc(C(F)(F)F)cc(C(F)(F)F)c1)c1cc(Cl)ccc1O [Compound 11] |  | able to significantly inhibit |  |  | able to synergize | able to significantly inhibit | synergy with enzalutamide in inhibiting cell growth (CWR22Rv1 cells [2]): able to synergize
7 | CNC(=O)c1ccc(N2C(=S)N(c3ccc(C#N)c(C(F)(F)F)c3)C(=O)C2(C)C)cc1F [enzalutamide, reference compound] |  |  |  |  |  |  | cell growth (C4-2B MDVR cells; C4-2B MDVR, 48 hours): did not inhibit; cell growth (CWR22Rv1 cells [1]): did not inhibit; cell growth, antiandrogen alone (CWR22Rv1 cells [2]; CWR22Rv1, enzalutamide 20 μM or abiraterone 5 μM, 0, 3, 5 days, FIG. 9): resistant
8 | CC(C)(C)OC(=O)COc1ccc(Cl)cc1C(=O)Nc1ccc([N+](=O)[O-])cc1Cl [Compound 35] | no effect |  |  | no effect |  |  | 
9 | CCC(=O)Oc1ccc(Cl)cc1C(=O)Nc1ccc([N+](=O)[O-])cc1Cl [Compound 30] | inhibited | significantly inhibited | None of Compounds 1, 7, 30, 31, or 34 alone were able to inhibit | inhibited | able to synergize | significantly inhibited | PSA expression (PSA; compound alone, ELISA): inhibited; enzalutamide-mediated PSA inhibition (PSA; in presence of enzalutamide (MDV)): further enhanced; cell proliferation, combination with enzalutamide (MDV) (C4-2B AbiR cells): further inhibited; cell proliferation, combination with enzalutamide (MDV) (C4-2B MDVR cells; C4-2B MDVR, 0.5 μM + enzalutamide, 48 hours, FIG. 7B): further inhibited; synergy with abiraterone in inhibiting cell growth (C4-2B MDVR cells): able to synergize; synergy with enzalutamide in inhibiting cell growth (C4-2B MDVR cells): able to synergize; cell proliferation, combination with enzalutamide (MDV) (C4-2-V7 cells): further inhibited; AR-V7 mediated PSA-luc activity (AR-V7 [4]): inhibited; cell apoptosis (C4-2BMDVR cells; compound alone, analogs compared with niclosamide): further enhanced; apoptotic cell death, combination with enzalutamide (MDV) (C4-2BMDVR cells; with enzalutamide): further increased; cell proliferation, combination with enzalutamide (MDV) (CWR22Rv1 cells [1]; CWR22Rv1, 0.5 μM + enzalutamide, 48 hours, FIG. 7A): further inhibited; cell growth, combination with bicalutamide (CWR22Rv1 cells [2]; FIG. 12): able to significantly inhibit; synergy with bicalutamide in inhibiting cell growth (CWR22Rv1 cells [2]; CWR22Rv1, analog 0.25 μM + bicalutamide 20 μM, FIG. 12): able to synergize; synergy with enzalutamide in inhibiting cell growth (CWR22Rv1 cells [2]): able to synergize
10 | O=C(Nc1ccccc1Cl)c1cc(Cl)ccc1O [Compound 8] | no effect |  |  | no effect |  |  | 
11 | O=C(Nc1cc(C(F)(F)F)cc(C(F)(F)F)c1)c1cc(Cl)ccc1O [Compound 5] | inhibited |  |  | inhibited |  |  | 
12 | O=C(Nc1ccc([N+](=O)[O-])cc1Cl)c1cccc(Cl)c1 [Compound 1] | no effect | nor the was the combination of these compounds with enzalutamide or abiraterone able to inhibit | Neither of Compounds 1 or 34 alone were able to inhibit; also recorded: None of Compounds 1, 7, 30, 31, or 34 alone were able to inhibit | no effect |  |  | synergy with abiraterone in inhibiting cell growth (C4-2B MDVR cells): neither Compound 1 nor Compound 34 were able to synergize; synergy with enzalutamide in inhibiting cell growth (C4-2B MDVR cells): neither Compound 1 nor Compound 34 were able to synergize; cell growth, combination with bicalutamide (CWR22Rv1 cells [2]; FIG. 12): not able to inhibit
13 | O=C(O)COc1ccc(Cl)cc1C(=O)Nc1ccc([N+](=O)[O-])cc1Cl [Compound 29] | no effect |  |  | no effect |  |  | 
